{
  "source": "ChEMBL document CHEMBL6121057",
  "about": "“Discovery of an Orally Bioavailable STING Inhibitor with In Vivo Anti-Inflammatory Activity in Mice with STING-Mediated Inflammation” (J Med Chem, 2025)",
  "key": {"[1]": {"experiment": "Metabolic stability in human liver microsomes assessed as intrinsic clearance", "format": "ADME, Microsome", "conditions": "read-out: CLH"}, "[2]": {"experiment": "Metabolic stability in human liver microsomes assessed as half life", "format": "ADME, Microsome"}, "[3]": {"experiment": "Oral bioavailability in Sprague-Dawley rat at 10 mg/kg measured […] by LC-MS/MS analysis", "format": "ADME, organism-based", "conditions": "in vivo"}, "[4]": {"experiment": "Tmax in Sprague-Dawley rat at 10 mg/kg, po measured […] by LC-MS/MS analysis", "format": "ADME, organism-based", "conditions": "in vivo"}, "[5]": {"experiment": "Tmax in Sprague-Dawley rat at 2 mg/kg, iv measured […] by LC-MS/MS analysis", "format": "ADME, organism-based", "conditions": "in vivo"}, "[6]": {"experiment": "AUC (0 to t) in Sprague-Dawley rat at 2 mg/kg, iv measured upto 60 mins by LC-MS/MS analysis", "format": "ADME, organism-based", "conditions": "in vivo"}, "[7]": {"experiment": "Half life in Sprague-Dawley rat at 2 mg/kg, iv measured upto 60 mins by LC-MS/MS analysis", "format": "ADME, organism-based", "conditions": "in vivo"}, "[8]": {"experiment": "AUC (0 to t) in Sprague-Dawley rat at 10 mg/kg, po measured upto 60 mins by LC-MS/MS analysis", "format": "ADME, organism-based", "conditions": "in vivo"}, "[9]": {"experiment": "Cmax in Sprague-Dawley rat at 10 mg/kg, po measured […] by LC-MS/MS analysis", "format": "ADME, organism-based", "conditions": "in vivo"}, "[10]": {"experiment": "Cmax in Sprague-Dawley rat at 2 mg/kg, iv measured […] by LC-MS/MS analysis", "format": "ADME, organism-based", "conditions": "in vivo"}},
  "data": [
    {"molecule": "CCc1ccc(NC(=O)Nc2c[nH]c3ccc(F)cc23)cc1", "values": [
      {"measurement": "CLint scaled", "setting": "[1]", "result": 53, "unit": "mL/min/kg"},
      {"measurement": "half-life", "setting": "[2]", "result": 16.9, "unit": "min"}
    ]},
    {"molecule": "O=C(Nc1ccc(C2CCC(F)(F)CC2)cc1)Nc1c[nH]c2ccc(F)cc12", "values": [
      {"measurement": "CLint scaled", "setting": "[1]", "result": 21.7, "unit": "mL/min/kg"},
      {"measurement": "half-life", "setting": "[2]", "result": 41, "unit": "min"}
    ]},
    {"molecule": "O=C(Nc1ccc(C(F)(F)F)cc1)Nc1c[nH]c2ccc(Cl)cc12", "values": [
      {"measurement": "bioavailability", "setting": "[3]", "result": 4.6, "unit": "%"},
      {"measurement": "Tmax", "setting": "[4]", "result": 252, "unit": "min"},
      {"measurement": "Tmax", "setting": "[5]", "result": 6, "unit": "min"},
      {"measurement": "AUC(0-t) at 1 h", "setting": "[6]", "result": 536, "unit": "ng·h/mL"},
      {"measurement": "half-life", "setting": "[7]", "result": 48, "unit": "min"},
      {"measurement": "CLint scaled", "setting": "[1]", "result": 6.4, "unit": "mL/min/kg"},
      {"measurement": "AUC(0-t) at 1 h", "setting": "[8]", "result": 125, "unit": "ng·h/mL"},
      {"measurement": "Cmax", "setting": "[9]", "result": 37, "unit": "ng/mL"},
      {"measurement": "half-life", "setting": "[2]", "result": 139, "unit": "min"},
      {"measurement": "Cmax", "setting": "[10]", "result": 842, "unit": "ng/mL"}
    ]}
  ]
}
